Data on 30 compounds can be found in article PMC9502272, “A Metabolomics Approach for Predicting OATP1B-Type Transporter-Mediated Drug–Drug Interaction Liabilities” (Pharmaceutics, 2022).

Where a name gives a salt, the structure may show the parent alone.

For the data set, the target named is T1, Oatp1b2 (Mus musculus, UniProt Q9JJL3).
T1 sequence (Q9JJL3 1-689): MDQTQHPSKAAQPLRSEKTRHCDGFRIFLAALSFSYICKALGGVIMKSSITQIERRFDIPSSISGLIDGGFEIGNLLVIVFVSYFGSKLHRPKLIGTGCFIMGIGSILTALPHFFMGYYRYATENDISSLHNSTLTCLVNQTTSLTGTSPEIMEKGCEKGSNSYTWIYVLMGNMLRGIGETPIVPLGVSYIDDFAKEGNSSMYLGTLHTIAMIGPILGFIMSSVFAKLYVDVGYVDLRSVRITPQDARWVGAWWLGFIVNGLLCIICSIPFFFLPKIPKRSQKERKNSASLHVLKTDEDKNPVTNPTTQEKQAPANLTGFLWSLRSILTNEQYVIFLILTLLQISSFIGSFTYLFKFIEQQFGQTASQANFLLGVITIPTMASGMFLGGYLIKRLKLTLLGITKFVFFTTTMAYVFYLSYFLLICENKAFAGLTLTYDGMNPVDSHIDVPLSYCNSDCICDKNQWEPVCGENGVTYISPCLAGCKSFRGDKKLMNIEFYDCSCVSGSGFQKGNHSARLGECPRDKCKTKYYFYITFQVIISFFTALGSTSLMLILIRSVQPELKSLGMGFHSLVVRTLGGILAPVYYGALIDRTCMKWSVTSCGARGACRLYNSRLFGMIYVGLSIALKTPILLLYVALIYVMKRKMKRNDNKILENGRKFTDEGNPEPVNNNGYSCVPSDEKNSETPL
Nature of the data set: Untargeted metabolomics of plasma from untreated wild-type and Oatp1b2(−/−) mice. As to conditions: for Fold of Change KO/WT: plasma of untreated Oatp1b2-deficient (KO) vs wild-type (WT) mice, semi-quantitative, positive = higher in KO, n = 6 per group; for Mean value KO: plasma of untreated Oatp1b2-deficient mice; for Mean value KO / Mean value WT: raw area counts rescaled to median = 1; for Mean value WT: plasma of untreated wild-type mice.

On to `CCCCCCCCCCCCCCCCCC(=O)OC[C@@H](O)COP(=O)(O)OCC(O)CO` (stereo partly drawn) [1-stearoyl-GPG (18:0)], for which the “Fold of Change KO/WT” value is reported as 4.16, the “Mean value KO” value is recorded as 1.76 and the “Mean value WT” value is “.423”.
The like results for `CSC=CC(O)C(O)C(=O)O` (stereo not drawn) [2,3-dihydroxy-5-methylthio-4-pentenoate (DMTPA)] were, in that order, 1.34, 1.23 and “.915”.
The like results for `CC(C(=O)O)c1ccc(O)cc1` (stereo not drawn) [2-(4-hydroxyphenyl)propionate] were, in that order, 1.30, 1.16 and “.895”.
Regarding `COC1=C(O)[C@@H]([C@@H](O)CO)OC1=O` [2-O-methylascorbic acid], the “Fold of Change KO/WT” value is reported as 1.16, the “Mean value KO” value came to 1.08 and the “Mean value WT” value is on record as “.927”.
Regarding `Cc1ccc(OS(=O)(=O)O)c(N)c1` [2-amino-p-cresol sulfate], the “Fold of Change KO/WT” value was determined as 4.28, the “Mean value KO” value is listed as 1.86 and the “Mean value WT” value was “.435”.
The like results for `CCC(C)C(O)C(=O)O` (stereo not drawn) [2-hydroxy-3-methylvalerate] were, in that order, 3.15, 2.33 and “.738”.
The like results for `CCCCCC/C=C\CCCCCCCC(=O)O[C@H](CO)COP(=O)([O-])OCC[N+](C)(C)C` [2-palmitoleoyl-GPC (16:1)] were, in that order, 1.95, 1.36 and “.696”.
The like results for `CCC(CO)C(=O)O` (stereo not drawn) [3-hydroxy-2-ethylpropionate] were, in that order, 1.25, 1.10 and “.879”.
As for `O=C(O)CCCCCCCCC(O)CC(=O)O` (stereo not drawn) [3-hydroxydodecanedioate], the “Fold of Change KO/WT” value was found to be 4.32, the “Mean value KO” value worked out at 1.64 and the “Mean value WT” value is listed as “.380”.
The like results for `O=S(=O)(O)Oc1c[nH]c2ccccc12` [3-indoxyl sulfate] were, in that order, 1.48, 1.19 and “.804”.
The like results for `O=C(O)CCc1ccccc1.O=C(O)CCc1ccccc1` [3-phenylpropionate (hydrocinnamate)] were, in that order, 1.62, 1.39 and “.855”.
The like results for `CC(=O)Nc1ccc(C(=O)O)cc1` [4-acetamidobenzoate] were, in that order, 2.14, 1.46 and “.685”.
Consider `CC(C)CCC[C@@H](C)[C@H]1CC[C@H]2[C@@H]3CCC4=CC(=O)CC[C@]4(C)[C@H]3CC[C@]12C` [4-cholesten-3-one], for which the “Fold of Change KO/WT” value is 1.29, the “Mean value KO” value was 1.12 and the “Mean value WT” value is “.870”.
The like results for `CCc1ccc(OS(=O)(=O)[O-])cc1.[K+]` [4-ethylphenylsulfate] were, in that order, 17.2, 4.08 and “.238”.
Consider `C=Cc1ccc(OS(=O)(=O)O)cc1` [4-vinylphenol sulfate], for which the “Fold of Change KO/WT” value was 1.55, the “Mean value KO” value is 1.32 and the “Mean value WT” value was “.847”.
The like results for `CCCCCC/C=C\CCCC(=O)OC(CC(=O)[O-])C[N+](C)(C)C` (stereo not drawn) [5-dodecenoylcarnitine (C12:1)] were, in that order, 1.46, 1.37 and “.936”.
The like results for `Cc1cn([C@H]2C[C@H](O)[C@@H](CO)O2)c(=O)nc1N` [5-methyl-2'-deoxycytidine] were, in that order, 1.83, 1.56 and “.852”.
The like results for `C[C@H](CCC(=O)O)[C@H]1CC[C@H]2[C@@H]3C[C@@H](O)[C@@H]4C[C@H](O)CC[C@]4(C)[C@H]3CC[C@]12C` [6-beta-hydroxylithocholate] were, in that order, 13.1, 1.16 and “.0890”.
As to `C[C@H](CCC(=O)O)[C@H]1CC[C@H]2[C@@H]3CC(=O)[C@@H]4C[C@H](O)CC[C@]4(C)[C@H]3CC[C@]12C` [6-oxolithocholate], the “Fold of Change KO/WT” value was 1.43, the “Mean value KO” value is on record as 0.970 and the “Mean value WT” value is listed as “.678”.
The like results for `CC(CCC[C@@H](C)[C@H]1CC[C@H]2[C@@H]3[C@H](O)CC4=CC(=O)CC[C@]4(C)[C@H]3CC[C@]12C)C(=O)O` (stereo partly drawn) [7-alpha-hydroxy-3-oxo-4-cholestenoate (7-Hoca)] were, in that order, 1.27, 1.20 and “.944”.
The like results for `C[C@H](CCC(=O)O)[C@H]1CC[C@H]2[C@@H]3C(=O)C[C@@H]4C[C@H](O)CC[C@]4(C)[C@H]3C[C@H](O)[C@]12C` [7-ketodeoxycholate] were, in that order, 6.23, 2.26 and “.362”.
In the case of `CC(=O)Nc1ccn([C@@H]2O[C@H](CO)[C@@H](O)[C@H]2O)c(=O)n1` [N4-acetylcytidine], the “Fold of Change KO/WT” value is on record as 1.36, the “Mean value KO” value came to 1.12 and the “Mean value WT” value is on record as “.819”.
The like results for `C[N+](C)(C)CCCCC(=O)[O-]` [N,N,N-trimethyl-5-aminovalerate] were, in that order, 3.45, 2.06 and “.597”.
The like results for `CC(=O)N[C@@H](Cc1cncn1C)C(=O)O` [N-acetyl-3-methylhistidine] were, in that order, 1.24, 1.09 and “.878”.
For the compound `CC(=O)N[C@@H](CCCCNC(N)=O)C(=O)O` [N-acetylhomocitrulline], the “Fold of Change KO/WT” value is 1.35, the “Mean value KO” value was determined as 1.17 and the “Mean value WT” value is recorded as “.861”.
The like results for `CC(=O)N[C@@H](CC(=O)c1ccccc1N)C(=O)O` [N-acetylkynurenine (2)] were, in that order, 1.41, 1.17 and “.827”.
The like results for `CC(=O)N[C@@H](CC[S+](C)[O-])C(=O)O` (stereo partly drawn) [N-acetylmethionine sulfoxide] were, in that order, 1.40, 1.31 and “.931”.
The like results for `CSC[C@H](NC(=O)CC[C@H](N)C(=O)O)C(=O)NCC(=O)O` [S-methylglutathione] were, in that order, 1.19, 1.11 and “.931”.
For `Nc1ncnc2c1ncn2C1OC(COP(=O)(O)O)C(O)C1O` (stereo not drawn) [adenosine 5'-monophosphate (AMP)], the “Fold of Change KO/WT” value turned out to be 1.12, the “Mean value KO” value is 1.04 and the “Mean value WT” value is “.927”.
The like results for `CC(C)CC(O)C(=O)O` (stereo not drawn) [alpha-hydroxyisocaproate] were, in that order, 2.29, 1.80 and “.787”.
